Measurements as given in patent publication US11306071B2, “Heterocyclic compounds as adenosine antagonists” (Nuvation Bio Inc., priority 2019, dated 2022).
pIC50: −log10 of the molar value.

Legend:
[1] = biological target: adenosine A2a (human) membrane (Homo sapiens (Human), UniProt P29274); test: A2A adenosine receptor radioligand binding assay ([3H] CGS-21680); conditions: radioligand [3H] CGS-21680 6 nM
Description: A second A2A adenosine receptor radioligand binding assay protocol was used. The protocol used adenosine A2a (human) membrane (PerkinElmer RBHA2AM400UA) at a concentration of 5 μg/well/100 μl and the radioligand [3H] CGS-21680 (Cat No. PerkinElmer-NET1021250UC) at a final concentration of 6 nM. Testing compounds were diluted with DMSO to make 8-point 4-fold serial dilution, starting at 0.2 mM. CGS-15943 was the reference compound. 1 μl of compounds/high control/low control was transferred to the assay plate according to a plate map, followed by 100 μl of membrane stocks and 100 μl of radioligand, in assay buffer (50 mM Tris-HCl, 10 mM MgCl2, 1 mM EDTA, pH 7.4). The plate was sealed and incubated at RT for 2 hours. Unifilter-96 GF/C filter plates (Perkin Elmer Cat #6005174) were soaked with 50 μl of 0.3% PEI per well for at least 0.5 hour at room temperature. When the binding assays were completed, the reaction mixtures were filtered through GF/C plates using Perkin Elmer Filtermate Harvester, and each plate washed 4 times with cold wash buffer (50 mM Tris-HCl, 154 mM NaCl, pH 7.4). The filter plates were dried for 1 hour at 50 degrees. After drying, the bottom of the filter plate wells was sealed, 50 μl of Perkin Elmer Microscint 20 cocktail was added, and the top of the filter plate was sealed. ^3H trapped on the filter was counted using Perkin Elmer MicroBeta2 Reader. The data were analyzed with GraphPad Prism 5 to obtain binding IC50 values. The “Inhibition [% Control]” was calculated using the equation: % Inh=(1-Background subtracted Assay value/Background subtracted HC value)*100, where HC is high control.

[2] = biological target: adenosine A1 (human) membrane (Homo sapiens (Human), UniProt P30542); test: A1 adenosine receptor radioligand binding assay ([3H] DPCPX); conditions: 200 nM compound; radioligand [3H] DPCPX 1 nM
Description: A second A1 adenosine receptor radioligand binding assay protocol was used. The protocol used adenosine A1 (human) membrane (PerkinElmer ES-010-M400UA) at a concentration of 2.5 μg/well/100 μl and the radioligand [3H] DPCPX (Cat No. PerkinElmer-NET974250UC) at a final concentration of 1 nM. Testing compounds were tested at a final concentration of 200 nM. CGS-15943, the reference compound, was tested in an 8-point 4-fold serial dilution, starting at a top concentration of 1 μM. 1 μl of compounds/high control/low control was transferred to the assay plate according to a plate map, followed by 100 μl of membrane stocks and 100 μl of radioligand, in assay buffer (25 mM HEPES, 5 mM MgCl2, 1 mM CaCl2, 100 mM NaCl, pH 7.4). The plate was sealed and incubated at RT for 1 hour. Unifilter-96 GF/C filter plates (Perkin Elmer Cat #6005174) were soaked with 50 μl of 0.3% PEI per well for at least 0.5 hour at room temperature. When the binding assays were completed, the reaction mixtures were filtered through GF/C plates using Perkin Elmer Filtermate Harvester, and each plate washed 4 times with cold wash buffer (25 mM HEPES, 5 mM MgCl2, 1 mM CaCl2, 100 mM NaCl, pH 7.4). The filter plates were dried for 1 hour at 50 degrees. After drying, the bottom of the filter plate wells was sealed, 50 μl of Perkin Elmer Microscint 20 cocktail was added, and the top of the filter plate was sealed. ^3H trapped on the filter was counted using Perkin Elmer MicroBeta2 Reader. The data were analyzed with GraphPad Prism 5 to obtain binding IC50 values for the reference compound. The “Inhibition [% Control]” was calculated using the equation: % Inh=(1-Background subtracted Assay value/Background subtracted HC value)*100, where HC is high control.

[3] = biological target: HEK-293 cells expressing human recombinant adenosine A2A receptor (Homo sapiens (Human), UniProt P29274); test: cAMP assay (Assay 2), A2A receptor; assay type: cell-based
Description: The functional activity of compounds was tested using Assay 2, below, to detect the presence of cAMP. Assay 1 is an alternative assay for this purpose. Activation of G-protein coupled receptors (such as A2A) results in activation of adenylyl cyclase which converts ATP into cAMP which is used as a downstream signaling molecule. Therefore, molecules which act as GPCR (or specifically A2A receptor) antagonists cause a decrease in intracellular cAMP concentration.
Assay 2 (Table B2): This assay used HEK-293 cells expressing human recombinant adenosine A2A receptor (or, alternatively, A1 receptor) that were grown prior to the test in media without antibiotic. 100 nL of test articles at 100x of final concentration were transferred to assay plate by Echo. Cells were washed twice with 5 mL of PBS and 10 μL of cells were mixed with 5 mL PBS. After aspirating the PBS and adding 1.5 mL versine, cells were incubated at 37° C. for 2-5 min. After centrifugation, 4 mL of medium was added and adjusted cell density to 5,000 cells/well with Stimulation Buffer. 10 μL of cells were aliquoted to the assay plate, centrifuged at 1000 rpm for 1 minute, and incubated for 60 minutes at room temperature. 5 μL 4× Eu-cAMP tracer solution and 5 μL 4× Ulight™-anti-cAMP solution were added to assay plate, followed by centrifugation and 60-minute incubation at room temperature. Plates were read on EnVision.

adenosine A2a (human) membrane, sequence (P29274 whole entry): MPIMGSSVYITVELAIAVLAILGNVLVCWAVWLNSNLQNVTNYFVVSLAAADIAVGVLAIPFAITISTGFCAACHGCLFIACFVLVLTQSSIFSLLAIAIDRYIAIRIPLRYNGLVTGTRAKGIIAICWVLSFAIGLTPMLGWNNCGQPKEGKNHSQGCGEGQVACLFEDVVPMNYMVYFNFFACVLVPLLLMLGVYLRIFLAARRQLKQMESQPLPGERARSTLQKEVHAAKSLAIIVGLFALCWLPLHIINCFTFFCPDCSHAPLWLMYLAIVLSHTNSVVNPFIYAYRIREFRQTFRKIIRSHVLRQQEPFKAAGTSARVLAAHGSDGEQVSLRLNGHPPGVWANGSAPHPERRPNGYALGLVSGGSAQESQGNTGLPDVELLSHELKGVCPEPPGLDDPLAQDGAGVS
HEK-293 cells expressing human recombinant adenosine A2A receptor, sequence (P29274 whole entry): as above
adenosine A1 (human) membrane, sequence (P30542 whole entry): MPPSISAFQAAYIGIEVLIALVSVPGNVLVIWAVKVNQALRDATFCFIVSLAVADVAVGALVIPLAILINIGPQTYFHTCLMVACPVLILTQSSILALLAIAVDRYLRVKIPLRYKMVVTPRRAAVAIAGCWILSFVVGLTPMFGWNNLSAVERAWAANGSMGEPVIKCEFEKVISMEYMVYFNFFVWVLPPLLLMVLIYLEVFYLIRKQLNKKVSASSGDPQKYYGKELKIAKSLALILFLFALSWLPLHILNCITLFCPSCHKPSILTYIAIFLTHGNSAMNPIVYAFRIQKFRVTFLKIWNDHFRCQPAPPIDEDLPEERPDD

pIC50 [1] | inhibition at 0.2 µM [2] | pIC50 [3] | A1 binding inhibition at 200 nM (%) [2] | SMILES
8.96 | 80% | – | – | C[C@@H](NC(=O)c1nc(-c2cc(Cl)c3ncccc3c2)c(-c2ccccc2)nc1N)c1cccc(C#N)n1 [Compound No. 121, (R)-3-amino-6-(8-chloroquinolin-6-yl)-N-(1-(6-cyanopyridin-2-yl)ethyl)-5-phenylpyrazine-2-carboxamide]
– | 34% | 6.78 | – | C[C@@H](NC(=O)c1nc(-c2cc(Cl)c3ncccc3c2)c(-c2ccc(F)cc2)nc1N)c1ccccn1 [compound 106, (R)-3-amino-6-(8-chloroquinolin-6-yl)-5-(4-fluorophenyl)-N-(1-(pyridin-2-yl)ethyl)pyrazine-2-carboxamide]
8.80 | 77% | – | – | C[C@@H](NC(=O)c1nc(-c2cc(Cl)c3[nH]ncc3c2)c(-c2ccn(C)n2)nc1N)c1ccccn1 [Compound No. 112, (R)-3-amino-6-(7-chloro-1H-indazol-5-yl)-5-(1-methyl-1H-pyrazol-3-yl)-N-(1-(pyridin-2-yl)ethyl)pyrazine-2-carboxamide]
8.41 | 61% | – | – | C[C@H](NC(=O)c1nc(-c2ccc3ncccc3c2)c(-c2ccccc2)nc1N)c1cnccn1 [Compound No. 129, (S)-3-amino-5-phenyl-N-(1-(pyrazin-2-yl)ethyl)-6-(quinolin-6-yl)pyrazine-2-carboxamide]
8.17 | 45% | – | – | CC(NC(=O)c1nc(-c2ccc3ncccc3c2)c(-c2ccccc2)nc1N)c1ncccn1 (stereo not drawn) [Compound No. 120, 3-amino-5-phenyl-N-(1-(pyrimidin-2-yl)ethyl)-6-(quinolin-6-yl)pyrazine-2-carboxamide]
8.46 | 95% | – | – | CC(NC(=O)c1nc(-c2cc(Cl)c3ncccc3c2)c(-c2ccccc2)nc1N)c1cccc(C#N)n1 (stereo not drawn) [Compound No. 114, 3-amino-6-(8-chloroquinolin-6-yl)-N-(1-(6-cyanopyridin-2-yl)ethyl)-5-phenylpyrazine-2-carboxamide]
8.27 | 98% | – | – | C[C@H](NC(=O)c1nc(-c2ccc3ncccc3c2)c(-c2ccccc2)nc1N)c1cccc(C#N)n1 [Compound No. 116, (S)-3-amino-N-(1-(6-cyanopyridin-2-yl)ethyl)-5-phenyl-6-(quinolin-6-yl)pyrazine-2-carboxamide]
8.41 | 84% | – | – | CC(NC(=O)c1nc(-c2ccc3ncccc3c2)c(-c2ccn(C)n2)nc1N)c1cccc(C#N)n1 (stereo not drawn) [Compound No. 127, 3-amino-N-(1-(6-cyanopyridin-2-yl)ethyl)-5-(1-methyl-1H-pyrazol-3-yl)-6-(quinolin-6-yl)pyrazine-2-carboxamide]
7.80 | 92% | – | – | C[C@H](NC(=O)c1nc(-c2ccc3ncccc3c2)c(-c2cccc(C#N)c2)nc1N)c1cccc(C#N)n1 [Compound No. 118, (S)-3-amino-5-(3-cyanophenyl)-N-(1-(6-cyanopyridin-2-yl)ethyl)-6-(quinolin-6-yl)pyrazine-2-carboxamide]
7.92 | – | – | 92% | CC(NC(=O)c1nc(-c2cc(Cl)c3ncccc3c2)c(-c2ccccc2)nc1N)c1ccccn1 (stereo not drawn) [Compound No. 119, 3-amino-6-(8-chloroquinolin-6-yl)-5-phenyl-N-(1-(pyridin-2-yl)ethyl)pyrazine-2-carboxamide]
6.57 | 56% | – | – | C[C@@H](NC(=O)c1nc(-c2ccc3ncccc3c2)c(-c2cccc(C#N)c2)nc1N)c1cccc(C#N)n1 [Compound No. 117, (R)-3-amino-5-(3-cyanophenyl)-N-(1-(6-cyanopyridin-2-yl)ethyl)-6-(quinolin-6-yl)pyrazine-2-carboxamide]

The next lines start with the compound.

SMILES | pIC50 [1] | inhibition at 0.2 µM [2] | pIC50 [3] | A1 binding inhibition at 200 nM (%) [2]
CC(NC(=O)c1nc(-c2ccc3ncccc3c2)c(-c2ccn(C)n2)nc1N)c1ncccn1 (stereo not drawn) [Compound No. 460, 3-amino-5-(1-methyl-1H-pyrazol-3-yl)-N-(1-(pyrimidin-2-yl)ethyl)-6-(quinolin-6-yl)pyrazine-2-carboxamide] | 8.14 | – | – | –
CC(NC(=O)c1nc(-c2ccc3ncccc3c2)c(-c2ccccc2)nc1N)c1cccc(C#N)n1 (stereo not drawn) [Compound No. 111, 3-amino-N-(1-(6-cyanopyridin-2-yl)ethyl)-5-phenyl-6-(quinolin-6-yl)pyrazine-2-carboxamide] | 8.41 | 92% | – | –
N#Cc1cccc(-c2nc(N)cnc2-c2cc(Cl)c3[nH]ncc3c2)c1 [Compound No. 2-7, 3-(6-amino-3-(7-chloro-1H-indazol-5-yl)pyrazin-2-yl)benzonitrile] | – | 81% | 6.89 | –
CC(NC(=O)c1nc(-c2cc(Cl)c3ncccc3c2)c(-c2ccn(C)n2)nc1N)c1cccc(C#N)n1 (stereo not drawn) [Compound No. 99, 3-amino-6-(8-chloroquinolin-6-yl)-N-(1-(6-cyanopyridin-2-yl)ethyl)-5-(1-methyl-1H-pyrazol-3-yl)pyrazine-2-carboxamide] | – | – | 7.14 | –
C[C@@H](NC(=O)c1nc(-c2cc(Cl)c3ncccc3c2)c(-c2ccccc2)nc1N)c1ccccn1 [Compound No. 113, (R)-3-amino-6-(8-chloroquinolin-6-yl)-5-phenyl-N-(1-(pyridin-2-yl)ethyl)pyrazine-2-carboxamide] | 8.33 | 58% | – | –
CC(NC(=O)c1nc(-c2ccc3ncccc3c2)c(-c2ccn(C)n2)nc1N)c1ccccn1 (stereo not drawn) [Compound No. 459, 3-amino-5-(1-methyl-1H-pyrazol-3-yl)-N-(1-(pyridin-2-yl)ethyl)-6-(quinolin-6-yl)pyrazine-2-carboxamide] | 8.33 | – | – | –
CCN(CC)CCNc1nc(-c2ccc3ncccc3c2)c(-c2ccccc2)nc1N [compound 1, N2-(2-(diethylamino)ethyl)-5-phenyl-6-(quinolin-6-yl)pyrazine-2,3-diamine] | – | – | 6.58 | –
C[C@@H](NC(=O)c1nc(-c2cc(Cl)c3ncccc3c2)c(-c2ccccc2)nc1N)c1ccccn1 [Compound No. 123, (R)-3-amino-6-(8-chloroquinolin-6-yl)-5-phenyl-N-(1-(pyridin-2-yl)ethyl)pyrazine-2-carboxamide] | 8.96 | – | – | 89%
C[C@@H](NC(=O)c1nc(-c2ccc3ncccc3c2)c(-c2ccccc2)nc1N)c1cccc(C#N)n1 [Compound No. 115, (R)-3-amino-N-(1-(6-cyanopyridin-2-yl)ethyl)-5-phenyl-6-(quinolin-6-yl)pyrazine-2-carboxamide] | 7.19 | 74% | – | –
